Read-outs that look alike come from different tables or passages of the source.
Tests used:
in vitro = details: cat
SARS-CoV-2 3CL^pro = SARS-CoV-2 3CL^pro (Severe acute respiratory syndrome coronavirus 2, UniProt P0DTD1); test: biochemical; format: biochemical
MERS-CoV 3CL^pro = MERS-CoV 3CL^pro (Middle East respiratory syndrome-related coronavirus, UniProt K9N7C7); test: biochemical
[1] = test system: entry of SARS-CoV-2 (pseudotyped lentivirus with S); test: organism not typed; format: cell-based; details: read-out: EC50 inhibition of SARS-CoV-2 entry
SARS-CoV-2 replicon [2] = details: read-out: EC50 SARS-CoV-2 replicon assay, previously reported; cited from earlier work
SARS-CoV-2 replicon [3] = format: cell-based; details: read-out: EC50 SARS-CoV-2 replicon assay
CRFK cells = details: cat

MERS-CoV 3CL^pro, sequence (K9N7C7 3248-3553 limits assumed): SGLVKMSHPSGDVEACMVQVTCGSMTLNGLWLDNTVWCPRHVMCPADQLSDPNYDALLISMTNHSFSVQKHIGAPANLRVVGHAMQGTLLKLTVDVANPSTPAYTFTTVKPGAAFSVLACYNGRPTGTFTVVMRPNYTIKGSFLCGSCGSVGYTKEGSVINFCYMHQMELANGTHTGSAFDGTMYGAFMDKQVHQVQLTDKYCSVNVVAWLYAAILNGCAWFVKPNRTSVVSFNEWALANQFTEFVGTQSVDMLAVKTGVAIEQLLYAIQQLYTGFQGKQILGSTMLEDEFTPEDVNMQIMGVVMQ

Molecule	CC50 (in vitro) [nM]	IC50 (SARS-CoV-2 3CL^pro) [nM]	IC50 (MERS-CoV 3CL^pro) [nM]	also measured
CC(C)C[C@H](NC(=O)OC1CC2(C1)CN(C(=O)Cc1ccccc1)C2)C(=O)N[C@@H](C[C@H]1CCNC1=O)C(O)S(=O)(=O)O (stereo partly drawn) [Compound 3c, Sodium (2S)-1-hydroxy-2-((S)-4-methyl-2-((((2-(2-phenylacetyl)-2-azaspiro[3.3]heptan-6-yl)oxy)carbonyl)amino)pentanamido)-3-((R)-2-oxopyrrolidin-3-yl)propane-1-sulfonate]	> 100000	260 ± 50	130 ± 30	
CC(C)C[C@H](NC(=O)OC1CC2(C1)CN(S(C)(=O)=O)C2)C(=O)N[C@@H](C[C@H]1CCNC1=O)C(O)S(=O)(=O)O (stereo partly drawn) [Compound 4c, Sodium (2S)-1-hydroxy-2-((S)-4-methyl-2-((((2-(methylsulfonyl)-2-azaspiro[3.3]heptan-6-yl)oxy)carbonyl)amino)pentanamido)-3-((R)-2-oxopyrrolidin-3-yl)propane-1-sulfonate]	> 100000	760 ± 80	160 ± 10	
CC(C)C[C@H](NC(=O)OC1CC2(CCN(C(=O)OC(C)(C)C)C2)C1)C(=O)N[C@@H](C[C@H]1CCNC1=O)C(O)S(=O)(=O)O (stereo partly drawn) [Compound 5c, Sodium (2S)-2-((S)-2-((((6-(tert-butoxycarbonyl)-6-azaspiro[3.4]octan-2-yl)oxy)carbonyl)amino)-4-methylpentanamido)-1-hydroxy-3-((R)-2-oxopyrrolidin-3-yl)propane-1-sulfonate]	> 100000	750 ± 70	750 ± 70	
CC(C)C[C@H](NC(=O)OC1CCC2(C1)CN(C(=O)OC(C)(C)C)C2)C(=O)N[C@@H](C[C@H]1CCNC1=O)C(O)S(=O)(=O)O (stereo partly drawn) [Compound 6c, Sodium (2S)-2-((2S)-2-((((2-(tert-butoxycarbonyl)-2-azaspiro[3.4]octan-6-yl)oxy)carbonyl)amino)-4-methylpentanamido)-1-hydroxy-3-((R)-2-oxopyrrolidin-3-yl)propane-1-sulfonate]	> 100000	1200 ± 140	1300 ± 140	
CC(C)C[C@H](NC(=O)OC1CC2(CCN(C(=O)OC(C)(C)C)CC2)C1)C(=O)N[C@H](C=O)C[C@H]1CCNC1=O [Compound 7b, tert-Butyl 2-((((S)-4-methyl-1-oxo-1-(((S)-1-oxo-3-((R)-2-oxopyrrolidin-3-yl)propan-2-yl)amino)pentan-2-yl)carbamoyl)oxy)-7-azaspiro[3.5]nonane-7-carboxylate]	> 100000			fold lower IC50 than compound 1b (SARS-CoV-2 3CL^pro): > 9 fold; EC50 [1]: 2000 to 10000 nM
CC(C)C[C@H](NC(=O)OC1CC2(CCN(C(=O)OC(C)(C)C)CC2)C1)C(=O)N[C@@H](C[C@H]1CCNC1=O)C(O)S(=O)(=O)O (stereo partly drawn) [Compound 7c, Sodium (2S)-2-((S)-2-((((7-(tert-butoxycarbonyl)-7-azaspiro[3.5]nonan-2-yl)oxy)carbonyl)amino)-4-methylpentanamido)-1-hydroxy-3-((R)-2-oxopyrrolidin-3-yl)propane-1-sulfonate]	> 100000	290 ± 20	950 ± 210	EC50 [1]: 2000 to 10000 nM
CC(C)C[C@H](NC(=O)OC1CC2(CCN(C(=O)C(C)C)CC2)C1)C(=O)N[C@@H](C[C@H]1CCNC1=O)C(O)S(=O)(=O)O (stereo partly drawn) [Compound 8c, Sodium (2S)-1-hydroxy-2-((S)-2-((((7-isobutyryl-7-azaspiro[3.5]nonan-2-yl)oxy)carbonyl)amino)-4-methylpentanamido)-3-((R)-2-oxopyrrolidin-3-yl)propane-1-sulfonate]	> 100000	410 ± 10	520 ± 120	
CC(C)C[C@H](NC(=O)OC1CC2(CCN(C(=O)Cc3ccccc3)CC2)C1)C(=O)N[C@@H](C[C@H]1CCNC1=O)C(O)S(=O)(=O)O (stereo partly drawn) [Compound 9c, Sodium (2S)-1-hydroxy-2-((S)-4-methyl-2-((((7-(2-phenylacetyl)-7-azaspiro[3.5]nonan-2-yl)oxy)carbonyl)amino)pentanamido)-3-((R)-2-oxopyrrolidin-3-yl)propane-1-sulfonate]	> 100000	290 ± 60	610 ± 130	
CC(C)C[C@H](NC(=O)OC1CC2(CCN(S(C)(=O)=O)CC2)C1)C(=O)N[C@@H](C[C@H]1CCNC1=O)C(O)S(=O)(=O)O (stereo partly drawn) [Compound 10c, Sodium (2S)-1-hydroxy-2-((S)-4-methyl-2-((((7-(methylsulfonyl)-7-azaspiro[3.5]nonan-2-yl)oxy)carbonyl)amino)pentanamido)-3-((R)-2-oxopyrrolidin-3-yl)propane-1-sulfonate]	> 100000	240 ± 30	330 ± 40	
CC(C)C[C@H](NC(=O)OC1CC2(CCN(C#N)CC2)C1)C(=O)N[C@@H](C[C@H]1CCNC1=O)C(O)S(=O)(=O)O (stereo partly drawn) [Compound 11c, Sodium (2S)-2-((S)-2-((((7-cyano-7-azaspiro[3.5]nonan-2-yl)oxy)carbonyl)amino)-4-methylpentanamido)-1-hydroxy-3-((R)-2-oxopyrrolidin-3-yl)propane-1-sulfonate]	> 100000	390 ± 30	630 ± 180	
CC(C)C[C@H](NC(=O)OC1CN(C(=O)OC(C)(C)C)C1)C(=O)N[C@@H](C[C@H]1CCNC1=O)C(O)S(=O)(=O)O (stereo partly drawn) [Compound 12c, Sodium (2S)-2-((S)-2-((((1-(tert-butoxycarbonyl)azetidin-3-yl)oxy)carbonyl)amino)-4-methylpentanamido)-1-hydroxy-3-((R)-2-oxopyrrolidin-3-yl)propane-1-sulfonate]	> 100000	3050 ± 350	2550 ± 920	
CC(C)C[C@H](NC(=O)OC1(C)CN(C(=O)OC(C)(C)C)C1)C(=O)N[C@@H](C[C@H]1CCNC1=O)C(O)S(=O)(=O)O (stereo partly drawn) [Compound 13c, Sodium (2S)-2-((S)-2-((((1-(tert-butoxycarbonyl)-3-methylazetidin-3-yl)oxy)carbonyl)amino)-4-methylpentanamido)-1-hydroxy-3-((R)-2-oxopyrrolidin-3-yl)propane-1-sulfonate]	> 100000	2500 ± 570	4300 ± 280	
CC(C)C[C@H](NC(=O)OCC1CN(C(=O)OC(C)(C)C)C1)C(=O)N[C@H](C=O)C[C@H]1CCNC1=O [Compound 14b, tert-Butyl 3-(((((S)-4-methyl-1-oxo-1-(((S)-1-oxo-3-((R)-2-oxopyrrolidin-3-yl)propan-2-yl)amino)pentan-2-yl)carbamoyl)oxy)methyl)azetidine-1-carboxylate]	> 100000			fold better IC50 than the 12b/12c pair (SARS-CoV-2 3CL^pro): > 6 fold; fold more potent than 17b (SARS-CoV-2 3CL^pro): 12 fold; EC50 [1]: 2000 to 10000 nM
CC(C)C[C@H](NC(=O)OCC1CN(C(=O)OC(C)(C)C)C1)C(=O)N[C@@H](C[C@H]1CCNC1=O)C(O)S(=O)(=O)[O-].[Na+] (stereo partly drawn) [Compound 14c, Sodium (2S)-2-((S)-2-((((1-(tert-butoxycarbonyl)azetidin-3-yl)methoxy)carbonyl)amino)-4-methylpentanamido)-1-hydroxy-3-((R)-2-oxopyrrolidin-3-yl)propane-1-sulfonate]	> 100000	500 ± 140	440 ± 60	fold better IC50 than the 12b/12c pair (SARS-CoV-2 3CL^pro): > 6 fold; EC50 [1]: 2000 to 10000 nM
CC(C)C[C@H](NC(=O)OCC1CN(C(=O)Cc2ccccc2)C1)C(=O)N[C@@H](C[C@H]1CCNC1=O)C(O)S(=O)(=O)O (stereo partly drawn) [Compound 15c, Sodium (2S)-1-hydroxy-2-((S)-4-methyl-2-((((1-(2-phenylacetyl)azetidin-3-yl)methoxy)carbonyl)amino)pentanamido)-3-((R)-2-oxopyrrolidin-3-yl)propane-1-sulfonate]	> 100000	760 ± 80	180 ± 10	
CC(C)C[C@H](NC(=O)OCC1CN(C(=O)C2CC3CCC2C3)C1)C(=O)N[C@@H](C[C@H]1CCNC1=O)C(O)S(=O)(=O)O (stereo partly drawn) [Compound 16c, Sodium (2S)-2-((2S)-2-((((1-(bicyclo[2.2.1]heptane-2-carbonyl)azetidin-3-yl)methoxy)carbonyl)amino)-4-methylpentanamido)-1-hydroxy-3-((R)-2-oxopyrrolidin-3-yl)propane-1-sulfonate]	> 100000	490 ± 20	170 ± 30	
CC(C)C[C@H](NC(=O)OCC1CN(S(C)(=O)=O)C1)C(=O)N[C@@H](C[C@H]1CCNC1=O)C(O)S(=O)(=O)O (stereo partly drawn) [Compound 17c, Sodium (2S)-1-hydroxy-2-((S)-4-methyl-2-((((1-(methylsulfonyl)azetidin-3-yl)methoxy)carbonyl)amino)pentanamido)-3-((R)-2-oxopyrrolidin-3-yl)propane-1-sulfonate]	> 100000	4050 ± 780	1350 ± 210	
[2H]C([2H])(OC(=O)N[C@@H](CC(C)C)C(=O)N[C@@H](C[C@H]1CCNC1=O)C(O)S(=O)(=O)[O-])C1CN(C(=O)OC(C)(C)C)C1.[Na+] (stereo partly drawn) [Compound 18c, Sodium (2S)-2-((S)-2-((((1-(tert-butoxycarbonyl)azetidin-3-yl)methoxy-d2)carbonyl)amino)-4-methylpentanamido)-1-hydroxy-3-((R)-2-oxopyrrolidin-3-yl)propane-1-sulfonate]	> 100000	340 ± 10	370 ± 60	
GC376				EC50 (SARS-CoV-2 replicon [2]): 20 nM; EC50 (SARS-CoV-2 replicon [3]): 27 ± 10 nM; CC50 (CRFK cells): > 100000 nM

From PMC9172056 (Journal of medicinal chemistry, 2022)
